According to patent publication US4981842A, “Method of treating hormonal dependent mammary tumors in female mammals” (Roussel Uclaf, priority 1979, dated 1991):

Experiments:
ovarian steroidogenesis = assay: Inhibitory activity on ovarian steroidogenesis in women; type: in vivo
Method: The inhibitory activity of [D Ser (tbu)^6 xdes Gly NH2^10 ]LH-RH ethylamide on ovarian steroidogenosis in women was determined on 6 women aged 26 to 35 years with normal and regular menstrual cycles and without prior endocrinal or gynecological problems. The study was conducted for 6 consecutive cycles consisting of 2 pretreatment cycles, 2 treatment cycles and 2 post-treatment cycles. Two drops of a solution containing 500 μg of [D Ser (tbu)^6 xdes Gly NH2^10 ] LH-RH ethylamide were deposited on each nostril at 8 A.M. and 5 P.M. of a day between the 4th and 9th day after the peak of LH-day 0. Daily blood samples were taken between 4 and 6 P.M. to measure seric levels of LH, FSH, progesterone and estradiol which were determined by radioimmuno-logictests with double antibodies. The antibodies to measure LH and FSH were furnished by the National Pituitory Agency of N.I.H. of Bethesda, Md.
Estradiol and progesterone were measured with highly specific antibodies developed against 7-(O-carboxymethyl)oxime of estradiol and 12-(O-carboxymethyl)-oxime of progesterone, respectively [3H] 17β-estradiol and ^125 I-progesterone -12-[O-carboxymethyl)-oxime]used as tracers. The serum was extracted with benzene and the steroids were separated with a LH-20 column before the determination. The radioimmunological results were exploited by the program derived from model II of Rodbard and Lewald as in Example 1 and the statistical significance was measured by the multiple level test of Ducan-Kramer of Example 1. The results are shown in the graphs of sheets 3 to 5 of the Figures.

[1] = system: testicular steroidogenesis; assay: Inhibitory activity on testicular steroidogenesis in a patient with prostate cancer; type: in vivo, human; settings: intranasal 500 μg twice a day
From the text: The results are reported in the graphs of sheet 2 of the Figures.

[2] = system: testicular steroidogenesis; assay: Inhibitory activity against testicular steroidogenesis in men in good health, single intranasal dose; type: in vivo; settings: for seric level of testosterone/steroids on the fourth day after administration: fourth day (until 6th day)
Method: The inhibitory activity of [D Ser (tbu)^6 xdes Gly NH2^10 ]LH-RH ethylamide (described in German application Ser. No. 2,438,350) against testicular steroidogensis in men in good health was determined on men in good health aged 30 to 40 years. The said product was administered intranasally at a dose of 500 μg in a few drops of distilled water at 8 A.M. on the third day of the test. For 2 days prior to the treatment and for 6 days after the treatment, samples of blood were taken daily at 8 A.M., 3 P.M. and 10 P.M. On the day of administration of the LH-RH agonist, blood samples were taken at 11 A.M. and 6 P.M.
The seric concentrations of LH and FSH were measured by radioimmuno-logic dosages with double antibodies and the antiboides for measuring LH and FSH were furnished by the National Pituitary Agency of N.I.H. in Bethesda, Md. The seric concentrations of steroids was measured by radioimmuno-logic dosages in which one ml of serum was extracted with ether and the steroids were separated on a LH-20 column before measuring with radioimmuno-logic dosages. The radioimmuno-logic dosage results were determined by a program derived from model II of Rodbard et al [Second Karolinska Symposium on Research Methods in Reproductive Endroerinology, Diczfalusky Editer, Copenhague (1970), pp. 79-103]. The statistical significance was determined by the "multiple level test" of Duncan-Kramer [Kramer, Biometrics, vol. 12 (1956), p. 307]. The results are shown in the graphs on sheet 1 of the Figures filed herewith.

[3] = system: prostate and seminal vesicules; assay: Peptide in association with an antiandrogen: weight of prostate and seminal vesicles in rats; type: in vivo, rats of the Sprague-Dawley strain; settings: 14 days, 100 or 500 μg peptide s.c. plus 5 mg product A twice daily
Method: The effect of the administration of [D Ser (tbu)^6 des Gly NH2^10 ] LH-RH ethylamide in association with an antiandrogen was determined on groups of 9 normal rats of the Sprague-Dawley strain weighing about 250 g. The rats received for 14 days a subcutaneous administration at 9 A.M. of D Ser(Tbu)^6 of Gly^10 LH-RH ethylamide at a dose of 20, 100 or 500 μg in physiological serum and at 9 A.M. and 4 P.M. doses of 1 or 5 mg of 5,5-dimethyl-3-[4-nitro-3-trifluoromethyl-phenyl]-2,4-imidazolidinedione (product A) in solution in seasame oil containing 5% of benzyl alcohol. One group of rats received only physiological serum and one group received only product A.
The animals were killed 24 hours after the last injection and the weight of the prostate and seminal vesicules of the rats were determined.

[4] = intranasal 500 μg at 8 A.M. and 5 P.M. of one day in luteal phase, typical subject (sheet 3)
[5] = intranasal 500 μg, 3rd day following administration

CCNC(=O)[C@@H]1CCCN1C(=O)[C@H](CCCNC(=N)N)NC(=O)[C@H](CC(C)C)NC(=O)[C@@H](COC(C)(C)C)NC(=O)[C@H](Cc1ccc(O)cc1)NC(=O)[C@H](CO)NC(=O)[C@H](Cc1c[nH]c2ccccc12)NC(=O)[C@H](Cc1c[nH]cn1)NC(=O)[C@@H]1CCC(=O)N1 [[D Ser (tbu)^6 xdes Gly NH2^10] LH-RH ethylamide]
reduction of the level of progesterone as compared to the controls (ovarian steroidogenesis; 12 cycles of treatment (sheet 5)): 46%
progesterone level in cycles of post-treatment, pretreatment cycles as base of 100% (ovarian steroidogenesis; 12 cycles, 6 women): 99%
progesterone level in cycles of treatment, pretreatment cycles as base of 100% (ovarian steroidogenesis; 12 cycles, 6 women): 46%
reduction of seric levels of progesterone compared to controls, first cycle of treatment (ovarian steroidogenesis; [4]): 13%
reduction of seric levels of progesterone compared to controls, second cycle of treatment (ovarian steroidogenesis; [4]): 34%
level of seric progesterone over the 2 cycles of treatment (sheet 4) (ovarian steroidogenesis; return to normal for the 2 cycles of post-treatment): accelerated diminution
level of androgenic steroids (plasma) [1]: diminution
level of testosterone (plasma) ([1]; two weeks of treatment): stabilized at a very low level
concentration of 17-OH-progesterone relative to initial control values [2, 5]: 40%
concentration of testosterone relative to initial control values [2, 5]: 50%
seric concentration of pregnenolone, 17-OH-pregnenolone, progesterone, 17-OH-progesterone, Δ5-androstene-3β,17β-diol and testosterone on the day of treatment ([2]; intranasal 500 μg, day of treatment): increased
plasmatic levels of LH and FSH ([2]; intranasal 500 μg, men): increase
seric level of testosterone/steroids on the fourth day after administration ([2]; single intranasal dose 500 μg): returned to normal
seric level of testosterone/steroids on the fourth day after administration ([2]; single intranasal dose 500 μg, listed as peptide): return to normal levels
duration of the drop of seric levels of testicular steroids (testosterone and its precursors) ([2]; single intranasal dose 500 μg, human): 3 days
diminution of the level of testosterone ([2]; single intranasal dose 500 μg, human, 3rd day following administration): 50%
weight of the prostate [3]: Similar, but a little less marked
weight of the seminal vesicules [3]: approached the weight of the seminal vesicules of castrated rats
